From US5569654A, “Benzodiazepinones” (Glaxo Group Limited, priority 1992, dated 1996)

target: T1, CCK-B receptor (Cavia porcellus, UniProt H0VZC5); assay: CCK-B receptor binding affinity (guinea pig cortex assay); settings: not given
T1 construct: guinea pig cortex assay; from tissue; host or cells: guinea pig cortex
T1 sequence (H0VZC5 1-426): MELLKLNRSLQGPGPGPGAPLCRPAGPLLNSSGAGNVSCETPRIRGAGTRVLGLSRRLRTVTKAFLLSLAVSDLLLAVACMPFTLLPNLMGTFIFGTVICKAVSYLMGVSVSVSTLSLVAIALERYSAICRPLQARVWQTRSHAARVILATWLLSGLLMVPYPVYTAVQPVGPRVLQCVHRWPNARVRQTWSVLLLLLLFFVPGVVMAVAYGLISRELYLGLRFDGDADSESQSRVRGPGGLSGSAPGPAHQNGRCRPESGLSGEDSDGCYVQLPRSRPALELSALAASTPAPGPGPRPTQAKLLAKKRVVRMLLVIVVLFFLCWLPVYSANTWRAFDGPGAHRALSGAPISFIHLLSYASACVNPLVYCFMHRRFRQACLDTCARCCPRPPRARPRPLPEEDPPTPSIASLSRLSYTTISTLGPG
Procedure: The affinity of the compound of the invention for the CCK-B receptor has also been determined using the guinea pig codex assay as described by G Dal Fornoto et al J. Pharmacol Exp. Ther., 261 1056-1063, 1992.
The binding affinity of the compounds of the invention for the CCK-B receptor (guinea pig cortex assay) was determined using the procedure of G Dal Forno et al J. Pharmacol. Exp & Ther. 261--1056-1063. The pKi values determined with respresentative compounds of invention were as follows: […]

| Ki | Structure (SMILES) |
| --- | --- |
| 1 nM | COc1cccc(NC(=O)NC2N=C(CN3CCOCC3)c3ccccc3N(CC(=O)N(C)c3ccccc3)C2=O)c1 (single isomer, unassigned; (+)) [Example 14, (+)-2-{3-[3-(3-Methoxy-phenyl)-ureido]-5-morpholin-4-ylmethyl-2-oxo-2.3-dihydro-benzo [e][1,4]diazepin-1-yl}-N-methyl-N-phenyl-acetamide] |
| 1 nM | CN(C(=O)CN1C(=O)C(NC(=O)Nc2cccc(C#N)c2)N=C(CN2CCCCC2)c2ccccc21)c1ccccc1 (stereo not shown) [Example 1, 2-{3-[3-(3-Cyano-phenyl)-ureido]-2-oxo-5-piperidin-1-ylmethyl-2,3-dihydro-benzo-[e][4.1]diazepin-1-yl}-N-methyl-N-phenyl-acetamide] |
| 3.98 nM | CN(C(=O)CN1C(=O)C(NC(=O)Nc2cccc(C#N)c2)N=C(CN2CCCC2)c2ccccc21)c1ccccc1 (stereo not shown) [Example 2, 2-{3-[3-(3-Cyano-phenyl)-ureido]-2-oxo-5-pyrrolidin-1-ylmethyl-2,3-dihydro-[e][1,4]diazepin-1-yl}-N-methyl-N-phenyl-acetamide] |
| 2.51 nM | CC(C)NCC1=NC(NC(=O)Nc2cccc(C#N)c2)C(=O)N(CC(=O)N(C)c2ccccc2)c2ccccc21 (stereo not shown) [Example 3, 2-{-[3-(3-Cyano-phenyl)ureido]-5-(isopropylamino-methyl)-2-oxo-2,3-dihydro-benzo-[e][1,4]diazepin-1-yl}-N-methyl-N-phenyl-acetamide] |
| 1.58 nM | CN(C(=O)CN1C(=O)C(NC(=O)Nc2cccc(C#N)c2)N=C(CN2CCSCC2)c2ccccc21)c1ccccc1 (stereo not shown) [Example 4, 2-{3-[3-(3-Cyano-phenyl)-ureido]-2-oxo-5-[1,4]thiazinan-4-ylmethyl-2,3-dihydro-benzo[e][1,4]diazepin-1-y}-N-methyl-N-phenyl-acetamide] |
| 3.16 nM | C[C@@H]1CC[C@H](C)N1C(=O)CN1C(=O)C(NC(=O)Nc2cccc(C#N)c2)N=C(CN2CCOCC2)c2ccccc21 (stereo partly shown) [Example 5] |
| 2 nM | CN(C(=O)CN1C(=O)C(NC(=O)Nc2cccc(C#N)c2)N=C(CN2CCOCC2)c2ccccc21)c1ccc(F)cc1 (stereo not shown) [Example 6, 2-{3-[3-(3-Cyano-phenyl)-ureido]-5-morpholin-4-ylmethyl-2-oxo-2,3-dihydro-benzo-[e][1,4]diazepin-1-yl}-N-(4-fluoro-phenyl)-N-methyl-acetamide] |
| 1.58 nM | CCN(C(=O)CN1C(=O)C(NC(=O)Nc2cccc(C#N)c2)N=C(CN2CCOCC2)c2ccccc21)c1ccccc1 (stereo not shown) [Example 7, 2-{3-[3-(3-Cyano-phenyl)-ureido]-5-morpholin-4-ylmethyl-2-oxo-2,3-dihydro-benzo[e][1,4]diazepin-1yl}-N-ethyl-N-phenyl-acetamide] |
| 1.58 nM | CC(C)(C)C(=O)CN1C(=O)C(NC(=O)Nc2cccc(C#N)c2)N=C(CN2CCOCC2)c2ccccc21 (stereo not shown) [Example 8, 1-(3-Cyano-phenyl)-3-[1-(3,3-dimethyl-2-oxo-butyl)-5-morpholin-4-ylmethyl-2-oxo-2,3-dihydro-1H-benzo[e][1,4]diazepin-3-yl]-urea] |
| 1.26 nM | COc1cccc(NC(=O)NC2N=C(CN3CCOCC3)c3ccccc3N(CC(=O)N(C)c3ccccc3)C2=O)c1 (stereo not shown) [Example 9, 2-{3-[3-(3-Methoxy-phenyl)-ureido]-5-morpholin-4-ylmethyl-2-oxo-2,3-dihydro-benzo[e][1,4]diazepin-1-yl}-N-methyl-N-phenyl-acetamide] |
| 0.794 nM | CN(C(=O)CN1C(=O)C(NC(=O)Nc2ccccc2)N=C(CN2CCOCC2)c2ccccc21)c1ccccc1 (stereo not shown) [Example 10, N-Methyl-2-[5-morpholin-4-ylmethyl-2-oxo-3-(3-phenyl-ureido)-2,3-dihydro-benzo[e][1,4]diazepin-1-yl]-N-methyl-N-phenyl-acetamide] |
| 0.501 nM | CN(C(=O)CN1C(=O)C(NC(=O)Nc2cccc(C(F)(F)F)c2)N=C(CN2CCOCC2)c2ccccc21)c1ccccc1 (stereo not shown) [Example 11, N-Methyl-2-{5-morpholin-4-ylmethyl-2-oxo-3-[3-(3-trifluoromethyl-phenyl)-ureido]-2,3-dihydro-benzo[e][1,4]diazepin-1-yl}-N-phenyl-acetamide] |
| 6.31 nM | CN(C(=O)CN1C(=O)C(NC(=O)Nc2cccc(N)c2)N=C(CN2CCOCC2)c2ccccc21)c1ccccc1 (stereo not shown) [Example 13, 2-{3-[3-(3-Amino-phenyl)-ureido]-5-morpholin-4-ylmethyl-2-oxo-2,3-dihydro-benzo[e][1,4]diazepin-1-yl}-N-methyl-N-phenyl-acetamide] |
| 5.01 nM | CN1CCN(CC2=NC(NC(=O)Nc3cccc(C#N)c3)C(=O)N(CC(=O)N(C)c3ccccc3)c3ccccc32)CC1 (stereo not shown) [Example 16, 2-{3-[3-(3-Cyano-phenyl)-ureido]-5-(4-methyl-piperazin-1-ylmethyl)-2-oxo-2,3-dihydro-benzo[e][1,4]diazepin-1-yl}-N-methyl-N-phenyl-acetamide] |
| 2.51 nM | COc1cccc(NC(=O)NC2N=C(CCN(C)C)c3ccccc3N(CC(=O)N(C)c3ccccc3)C2=O)c1 (stereo not shown) [Example 17] |
| 1.26 nM | CN(C(=O)CN1C(=O)C(NC(=O)Nc2cccc(C#N)c2)N=C(CN2CCOCC2)c2ccccc21)c1ccccc1 (stereo not shown) [Example 18, 2-{3-[3-(3-Cyano-phenyl)-ureido]-5-morpholin-4-ylmethyl-2-oxo-2,3-dihydro-benzo [e][1,4]diazepin-1-yl}-N-methyl-N-phenyl-acetamide] |
| 3.16 nM | O=C(Nc1cccc(-c2cnco2)c1)NC1N=C(CN2CCOCC2)c2ccccc2N(CC(=O)N2CCCC2)C1=O (stereo not shown) [Example 19, 1-[5-(Morpholin-4-yl-methyl)-2-oxo-1-(2-oxo-2-pyrrolidin-1-yl-ethyl)-2,3-dihydro-benzo[e][1,4]diazepin-3-yl]-3-(3-oxazol-5-yl-phenyl)-urea] |

tested on: rats; assay: tolerability in rats; assay type: in vivo; settings: doses at which the compound exhibits CCK-B antagonist activity
Source text: (§1) The compounds of the invention are essentially non-toxic and therapeutically useful doses.

| Structure (SMILES) | untoward effects in rats |
| --- | --- |
| COc1cccc(NC(=O)NC2N=C(CN3CCOCC3)c3ccccc3N(CC(=O)N(C)c3ccccc3)C2=O)c1 (single isomer, unassigned; (+)) [Example 14, (+)-2-{3-[3-(3-Methoxy-phenyl)-ureido]-5-morpholin-4-ylmethyl-2-oxo-2.3-dihydro-benzo [e][1,4]diazepin-1-yl}-N-methyl-N-phenyl-acetamide] | no untoward effects were observed |

tested on: dogs; assay: tolerability in dogs; assay type: in vivo; settings: doses at which the compound exhibits CCK-B antagonist activity
Source text: as §1

| Structure (SMILES) | untoward effects in dogs |
| --- | --- |
| COc1cccc(NC(=O)NC2N=C(CN3CCOCC3)c3ccccc3N(CC(=O)N(C)c3ccccc3)C2=O)c1 (single isomer, unassigned; (+)) [Example 14, (+)-2-{3-[3-(3-Methoxy-phenyl)-ureido]-5-morpholin-4-ylmethyl-2-oxo-2.3-dihydro-benzo [e][1,4]diazepin-1-yl}-N-methyl-N-phenyl-acetamide] | no untoward effects were observed |
